Key:
Assay in all cases: Post-emergence test, greenhouse
Format in all cases: in vivo
[1] = test system: Galium aparine; details: evaluation 20 days after application
Description: (§1) The herbicidal action to be expected We for a given combination of two herbicides can be calculated as follows (see COLBY, S. R., “Calculating synergistic and antagonistic response of herbicide combinations”, Weeds 15, pages 20-22, 1967):
(§2) Post-emergence application of mixtures of a herbicide of formula I wherein R is CH3; R1 is 4-fluorine; R2 is 3-acetonitrile; and R3 and R4 are hydrogen (=herbicide no. 11) with the co-herbicide dicamba at 500 g/ha and 30 g/ha, respectively, in Table B1, and of a herbicide of formula I wherein R is CH3; R1 is 4-fluorine; R2 is 3-acetonitrile; and R3 and R4 are hydrogen (=herbicide no. I1) with the co-herbicide triasulfuron at 250 g/ha and 3.75 g.ha, respectively, in Table B2.
(§3) The test plants are grown to the 2- to 3-leaf stage in plastics pots under greenhouse conditions. A standard soil is used as cultivation substrate. At the 2- to 3-leaf stage, the herbicides are applied to the test plants on their own and as a mixture. The application is carried out using an aqueous suspension of the test compounds in 500 litres of water/ha. The rates of application depend on the optimum doses ascertained under field conditions and greenhouse conditions. […]

[2] = test system: winter wheat
Description: as §1, §2, §3

[3] = test system: winter barley; details: I1 500, dicamba 30, mixture 500 + 30 g a.i./ha, evaluation 20 days after application
Experimental: (§4) The herbicidal action to be expected We for a given combination of two herbicides can be calculated as follows (see COLBY, S. R., “Calculating synergistic and antagonistic response of herbicide combinations”, Weeds 15, pages 20-22, 1967): […] Post-emergence application of mixtures of a herbicide of formula I wherein R is CH3; […] R2 is 3-acetonitrile; and R3 and R4 are hydrogen (=herbicide no. […] The test plants are grown to the 2- to 3-leaf stage in plastics pots under greenhouse conditions. A standard soil is used as cultivation substrate. At the 2- to 3-leaf stage, the herbicides are applied to the test plants on their own and as a mixture. The application is carried out using an aqueous suspension of the test compounds in 500 litres of water/ha. The rates of application depend on the optimum doses ascertained under field conditions and greenhouse conditions.

[4] = test system: Stellaria media; details: I1 500, dicamba 30, mixture 500 + 30 g a.i./ha, evaluation 20 days after application
Experimental: as §4

[5] = test system: Raphnus raphanistrum; details: I1 500, dicamba 30, mixture 500 + 30 g a.i./ha, evaluation 20 days after application
Experimental: as §4

[6] = test system: Veronica persica; details: I1 500, dicamba 30, mixture 500 + 30 g a.i./ha, evaluation 20 days after application
Experimental: as §4

[7] = test system: Viola tricolor; details: I1 500, dicamba 30, mixture 500 + 30 g a.i./ha, evaluation 20 days after application
Experimental: as §4

[8] = test system: Kochia scoparia; details: I1 250, triasulfuron 3.5, mixture 250 + 3.75 g a.i./ha, evaluation 20 days after application
Description: as §1, §2, §3

[9] = test system: Lamium purpureum; details: I1 250, triasulfuron 3.5, mixture 250 + 3.75 g a.i./ha, evaluation 20 days after application
Description: as §1, §2, §3

[10] = test system: Matricaria chamomilla; details: I1 250, triasulfuron 3.5, mixture 250 + 3.75 g a.i./ha, evaluation 20 days after application
Description: as §1, §2, §3

[11] = test system: Capsella bursa-pastoris; details: I1 250, triasulfuron 3.5, mixture 250 + 3.75 g a.i./ha, evaluation 20 days after application
Description: as §1, §2, §3

[12] = test system: Polygonum convolvulus; details: I1 250, triasulfuron 3.5, mixture 250 + 3.75 g a.i./ha, evaluation 20 days after application
Description: as §1, §2, §3

[13] = test system: hard wheat; details: I1 250, triasulfuron 3.5, mixture 250 + 3.75 g a.i./ha, evaluation 10 days after application
Description: as §1, §2, §3

| SMILES | % action, Galium aparine ([1]; I1 500, dicamba 30, mixture 500 + 30 g a.i./ha) | % action, Wheat ([2]; I1 500, dicamba 30, mixture 500 + 30 g a.i./ha, evaluation 20 days after application, 100%=plant has died) | % action, Barley [3] | % action, Stellaria media [4] | % action, Raphnus raphan. [5] | % action, Veronica persica [6] | % action, Viola tric. [7] | % action, Kochia scop. [8] | % action, Lamium purpur. [9] | % action, Gal. apar. ([1]; I1 250, triasulfuron 3.5, mixture 250 + 3.75 g a.i./ha) | % action, Matr. cham. [10] | % action, W. wheat ([2]; I1 250, triasulfuron 3.5, mixture 250 + 3.75 g a.i./ha, evaluation 10 days after application) | % action, Caps. bursa-past. [11] | % action, Polyg. conv. [12] | % action, H. wheat [13] |
| --- | --- | --- | --- | --- | --- | --- | --- | --- | --- | --- | --- | --- | --- | --- | --- |
| COc1c(Cl)ccc(Cl)c1C(=O)O [dicamba] | 40% | 0% | 10% | 20% | 20% | 20% | 0% |  |  |  |  |  |  |  |  |
| COc1nc(C)nc(NC(=O)NS(=O)(=O)c2ccccc2OCCCl)n1 [triasulfuron] |  |  |  |  |  |  |  | 95% | 90% | 70% | 95% | 0% | 98% | 80% | 0% |

— patent US20040209775A1, “Herbicidal composition” (priority 2001, published 2004)
